Assay results published in patent US20230117034A1, “PYRAZOLOTRIAZINES” (Bayer Aktiengesellschaft, priority 2019, published 2023).

Tests used:
Assay type in all cases: cell-based
[1] = tested on: MDA-MB-231, human breast cancer cells; experiment: Proliferation assay MDA-MB-231 (crystal violet, 4 days); settings: Homo sapiens, MDA-MB-231, 96 h, MDA-MB-231 cells, median, read-out: Prolif-MDA MB-231, IC50-[mol/l] (median)
Procedure, shortened: (§1)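 Crystal violet proliferation read-out after 4 days of compound exposure (0.01-10 µmol/L; solvent 0.1% DMSO). Extinction at 595 nm, set between zero-point (0%) and vehicle (100%), fitted with 4 parameters to give IC50.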

[2] = target: T1, CDK12 (nuclear staining in CAL-120 cells) (Homo sapiens, UniProt Q9NYV4); experiment: CDK12 nuclear protein level: immunofluorescence/high content analysis (CAL-120); settings: for DC50: CAL-120 cells, 24 h, immunofluorescence, 50% reduction of nuclear CDK12 staining intensity, median, read-out: CDK12 degradation IF, DC50- [mol/l] (median); for (IC50 CDK12 high ATP) to (Degradation DC50 CDK12) ratio: ratio of IC50 CDK12 high ATP kinase assay to DC50 CDK12 degradation (IF, CAL-120)
T1 construct: endogenous in cells; host or cells: CAL-120 human breast cancer cells (DSMZ ACC 459)
Procedure, shortened: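 DC50 is the degrader concentration that halves nuclear CDK12 immunofluorescence relative to controls, measured by high-content imaging. CAL-120 cells were exposed to compound for 24 h at 37 °C before PFA fixation, and signal was normalized to DMSO and control wells.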

[3] = tested on: CAL-120, human breast adenocarcinoma cells; experiment: Proliferation assay CAL-120 (crystal violet, 4 days); settings: Homo sapiens, CAL-120, 96 h, CAL-120 cells, median, read-out: Prolif-CAL-120, IC50-[mol/l] (median)
Procedure, shortened: as §1

[4] = target: T2, CYCLIN K (nuclear staining in CAL-120 cells) (Homo sapiens, UniProt O75909); experiment: CYCLIN K nuclear protein level: immunofluorescence high content analysis (CAL-120); settings: 24 h, 50% reduction of nuclear CCNK staining intensity, median, read-out: CYCLIN K degradation IF, DC50-[mol/l] (median)
T2 construct: endogenous in cells; host or cells: CAL-120 human breast cancer cells (DSMZ ACC 459)
Procedure, shortened: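 Readout is automated confocal image analysis of nuclear cyclin K immunofluorescence (Hoechst nuclei) after PFA fixation. Cells were CAL-120, exposed to compound dose-response 24 h at 37 °C; values are DC50 for halving nuclear CCNK signal relative to DMSO and control wells.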

T1 sequence (Q9NYV4 whole entry): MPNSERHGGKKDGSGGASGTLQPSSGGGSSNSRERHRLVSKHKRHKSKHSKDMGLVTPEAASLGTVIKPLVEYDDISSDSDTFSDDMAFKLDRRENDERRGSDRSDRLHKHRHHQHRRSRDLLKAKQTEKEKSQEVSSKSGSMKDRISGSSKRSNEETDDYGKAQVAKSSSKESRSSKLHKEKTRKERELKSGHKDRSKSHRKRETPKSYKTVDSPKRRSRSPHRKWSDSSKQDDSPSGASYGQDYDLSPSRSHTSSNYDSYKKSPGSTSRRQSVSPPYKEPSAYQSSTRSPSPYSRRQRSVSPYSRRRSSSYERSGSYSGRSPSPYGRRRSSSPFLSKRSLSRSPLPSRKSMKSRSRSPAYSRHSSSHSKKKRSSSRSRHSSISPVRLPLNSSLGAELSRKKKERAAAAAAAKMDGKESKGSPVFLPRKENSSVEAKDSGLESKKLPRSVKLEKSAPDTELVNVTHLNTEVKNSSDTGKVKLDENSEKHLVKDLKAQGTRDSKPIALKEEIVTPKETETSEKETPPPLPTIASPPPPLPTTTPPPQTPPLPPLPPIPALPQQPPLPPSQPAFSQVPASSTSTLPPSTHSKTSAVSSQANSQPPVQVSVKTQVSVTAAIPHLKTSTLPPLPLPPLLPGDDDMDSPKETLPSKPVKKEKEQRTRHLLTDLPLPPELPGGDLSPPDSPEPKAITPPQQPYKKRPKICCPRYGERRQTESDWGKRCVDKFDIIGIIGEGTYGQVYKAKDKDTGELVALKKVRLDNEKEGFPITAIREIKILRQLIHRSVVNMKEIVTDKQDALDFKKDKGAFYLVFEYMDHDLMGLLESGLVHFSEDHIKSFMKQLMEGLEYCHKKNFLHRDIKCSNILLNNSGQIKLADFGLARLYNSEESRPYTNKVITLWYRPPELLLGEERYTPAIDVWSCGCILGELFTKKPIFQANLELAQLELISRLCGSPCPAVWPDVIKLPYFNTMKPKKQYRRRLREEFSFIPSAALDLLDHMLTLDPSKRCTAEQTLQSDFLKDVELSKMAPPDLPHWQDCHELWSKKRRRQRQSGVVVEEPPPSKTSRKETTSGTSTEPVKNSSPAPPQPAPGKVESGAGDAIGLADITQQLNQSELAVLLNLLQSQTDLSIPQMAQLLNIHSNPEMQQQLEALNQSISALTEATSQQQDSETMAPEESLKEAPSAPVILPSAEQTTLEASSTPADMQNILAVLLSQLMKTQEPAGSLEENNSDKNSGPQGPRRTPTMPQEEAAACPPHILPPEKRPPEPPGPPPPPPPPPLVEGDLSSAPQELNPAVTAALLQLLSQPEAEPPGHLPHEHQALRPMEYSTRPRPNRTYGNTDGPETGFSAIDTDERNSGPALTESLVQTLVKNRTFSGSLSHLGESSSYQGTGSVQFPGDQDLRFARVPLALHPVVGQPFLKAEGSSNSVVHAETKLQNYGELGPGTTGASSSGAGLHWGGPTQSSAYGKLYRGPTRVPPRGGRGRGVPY
T1 sequence (O75909 whole entry partner): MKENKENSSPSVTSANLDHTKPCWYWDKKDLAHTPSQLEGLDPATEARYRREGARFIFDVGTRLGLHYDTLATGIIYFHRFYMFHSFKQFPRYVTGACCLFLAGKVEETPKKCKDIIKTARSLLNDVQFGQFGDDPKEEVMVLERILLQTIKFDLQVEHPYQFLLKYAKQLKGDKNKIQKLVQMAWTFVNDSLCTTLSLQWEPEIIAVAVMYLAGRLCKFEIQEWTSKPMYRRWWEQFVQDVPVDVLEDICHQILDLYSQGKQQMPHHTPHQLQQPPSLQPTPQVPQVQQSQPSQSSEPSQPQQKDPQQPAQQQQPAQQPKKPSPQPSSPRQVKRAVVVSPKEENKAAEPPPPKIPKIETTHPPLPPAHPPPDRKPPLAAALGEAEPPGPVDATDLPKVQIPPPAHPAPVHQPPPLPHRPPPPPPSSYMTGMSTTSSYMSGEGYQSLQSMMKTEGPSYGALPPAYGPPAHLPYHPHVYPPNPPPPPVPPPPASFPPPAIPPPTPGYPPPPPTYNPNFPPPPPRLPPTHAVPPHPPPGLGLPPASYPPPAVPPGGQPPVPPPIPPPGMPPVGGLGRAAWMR
T2 sequence (O75909 whole entry): as the sequence (O75909 whole entry partner) above
T2 sequence (Q9NYV4 whole entry partner): as the sequence (Q9NYV4 whole entry) above

Row | SMILES | IC50 [1] [nM] | DC50 [2] [nM] | (IC50 CDK12 high ATP) to (Degradation DC50 CDK12) ratio [2] | IC50 [3] [nM] | DC50 [4] [nM]
1 | C[C@@]1(O)CCN(c2nc(NCc3nc4ccccc4[nH]3)n3ncc(Br)c3n2)C1 (single isomer, unassigned) [Example 281, (3R or S)-1-(4-{[(1H-benzimidazol-2-yl)methyl]amino}-8-bromopyrazolo[1,5-a][1,3,5]triazin-2-yl)-3-methylpyrrolidin-3-ol] | 306 | 40.3 | >419 | 85.4 | 20.8
2 | CN1CCN(c2nc(NCc3nc4ccccc4[nH]3)n3ncc(C(F)(F)F)c3n2)CC1 [Example 297, N-[(1H-benzimidazol-2-yl)methyl]-2-(4-methylpiperazin-1-yl)-8-(trifluoromethyl)pyrazolo[1,5-a][1,3,5]triazin-4-amine] | 77.7 | 7.59 | 2294 | 22.3 | 0.679
3 | Fc1ccc2[nH]c(CNc3nc(N4CCOCC4)nc4c(C5CCCC5)cnn34)nc2c1F [Example 262, 8-cyclopentyl-N-[(4,5-difluoro-1H-benzimidazol-2-yl)methyl]-2-(morpholin-4-yl)pyrazolo[1,5-a][1,3,5]triazin-4-amine] | 101 | 11.4 | >500 | 60.9 | 1.94
4 | FC(F)(F)Cc1cnn2c(NCc3nc4ccccc4[nH]3)nc(N3CCOCC3)nc12.O=CO [Example 265, formic acid-N-[(1H-benzimidazol-2-yl)methyl]-2-(morpholin-4-yl)-8-(2,2,2-trifluoroethyl)pyrazolo[1,5-a][1,3,5]triazin-4-amine (1/1)] | 106 | 7.23 | >2310 | 35.4 | 3.14
5 | OCC1CN(c2nc(NCc3nc4ccccc4[nH]3)n3ncc(Br)c3n2)C1 [Example 304, [1-(4-{[(1H-benzimidazol-2-yl)methyl]amino}-8-bromopyrazolo[1,5-a][1,3,5]triazin-2-yl)azetidin-3-yl]methanol] | 299 | 74.6 | 167 | 86.7 | 12.4
6 | CNC1CCN(c2nc(NCc3nc4ccccc4[nH]3)n3ncc(Br)c3n2)CC1 [Example 272, N-[(1H-benzimidazol-2-yl)methyl]-8-bromo-2-[4-(methylamino)piperidin-1-yl]pyrazolo[1,5-a][1,3,5]triazin-4-amine] | 27.7 | 7.24 | >2761 | 22.4 | 1.38
7 | Fc1ccc2[nH]c(CNc3nc(N4CCOCC4)nc4c(C5CC5(F)F)cnn34)nc2c1 (racemic) [Example 286, 8-[(1RS)-2,2-difluorocyclopropyl]-N-[(5-fluoro-1H-benzimidazol-2-yl)methyl]-2-(morpholin-4-yl)pyrazolo[1,5-a][1,3,5]triazin-4-amine] | 20 | 5.38 | 2107 | 20.8 | 1.89
8 | COc1ccc2[nH]c(CNc3nc(N4CCOCC4)nc4c(C(F)(F)F)cnn34)nc2c1 [Example 257, N-[(5-methoxy-1H-benzimidazol-2-yl)methyl]-2-(morpholin-4-yl)-8-(trifluoromethyl)pyrazolo[1,5-a][1,3,5]triazin-4-amine] | 10.7 | 3 | 39 | 10.8 | 0.864
9 | Fc1ccc2[nH]c(CNc3nc(N4CCOCC4)nc4c(CC(F)(F)F)cnn34)nc2c1 [Example 308, N-[(5-fluoro-1H-benzimidazol-2-yl)methyl]-2-(morpholin-4-yl)-8-(2,2,2-trifluoroethyl)pyrazolo[1,5-a][1,3,5]triazin-4-amine] | 27.9 | 4.93 | 1297 | 10.2 | 1.02
10 | c1ccc2[nH]c(CNc3nc(N4CCNCC4)nc4c(C5CC5)cnn34)nc2c1 [Example 247, N-[(1H-benzimidazol-2-yl)methyl]-8-cyclopropyl-2-(piperazin-1-yl)pyrazolo[1,5-a][1,3,5]triazin-4-amine] | 50.7 | 1.38 | 10678 | 9.79 | 0.933
11 | Brc1cnn2c(NCc3nc4ccccc4[nH]3)nc(N3CC4CCNC4C3)nc12 (stereo not drawn) [Example 271, 2-(2,3,3a,4,6,6a-hexahydro-1H-pyrrolo[2,3-c]pyrrol-5-yl)-N-(1H-benzimidazol-2-ylmethyl)-8-bromo-pyrazolo[1,5-a][1,3,5]triazin-4-amine] | 40 | 18.3 | >1094 | 23.2 | 1.21
12 | FC(F)(F)Cc1cnn2c(NCc3nc4cc(Cl)ccc4[nH]3)nc(N3CCOCC3)nc12 [Example 299, N-[(5-chloro-1H-benzimidazol-2-yl)methyl]-2-(morpholin-4-yl)-8-(2,2,2-trifluoroethyl)pyrazolo[1,5-a][1,3,5]triazin-4-amine] | 8.53 | 7.77 | 822 | 4.71 | 0.484
13 | CN(CC(C)(C)O)c1nc(NCc2nc3cc(Cl)c(Cl)cc3[nH]2)n2ncc(C3CC3)c2n1 [Example 306, 1-[(8-cyclopropyl-4-{[(5,6-dichloro-1H-benzimidazol-2-yl)methyl]amino}pyrazolo[1,5-a][1,3,5]triazin-2-yl)(methyl)amino]-2-methylpropan-2-ol] | 7.83 | 12.7 | 146 | 7.21 | 0.642
14 | Fc1ccc2[nH]c(CNc3nc(N4CCOCC4)nc4c(CC(F)(F)F)cnn34)nc2c1F [Example 268, N-[(4,5-difluoro-1H-benzimidazol-2-yl)methyl]-2-(morpholin-4-yl)-8-(2,2,2-trifluoroethyl)pyrazolo[1,5-a][1,3,5]triazin-4-amine] | 9.43 | 1.9 | 1120 | 5.59 | 0.756
15 | c1ccc2[nH]c(CNc3nc(N4CCOCC4)nc4c(C5CCCC5)cnn34)nc2c1 [Example 244, N-[(1H-benzimidazol-2-yl)methyl]-8-cyclopentyl-2-(morpholin-4-yl)pyrazolo[1,5-a][1,3,5]triazin-4-amine] | 501 | 101 | – | 218 | 15.6
16 | c1ccc2[nH]c(CNc3nc(N4CCOCC4)nc4c(C5CCC5)cnn34)nc2c1 [Example 263, N-[(1H-benzimidazol-2-yl)methyl]-8-cyclobutyl-2-(morpholin-4-yl)pyrazolo[1,5-a][1,3,5]triazin-4-amine] | 73.2 | 23.4 | 294 | 28.9 | 1.82
17 | Brc1cnn2c(NCc3nc4ccccc4[nH]3)nc(N3C[C@H]4CNC[C@H]4C3)nc12 [Example 283, N-[(1H-benzimidazol-2-yl)methyl]-8-bromo-2-[(3aR,6aS)-hexahydropyrrolo[3,4-c]pyrrol-2(1H)-yl]pyrazolo[1,5-a][1,3,5]triazin-4-amine] | 35 | 6.97 | 2630 | 26.1 | 0.367
